According to US20240415804A1, “METHOD OF TREATING PANCREATIC CANCER” (University of South Florida, priority 2022, published 2024):

Key:
miR-155 = miR-155 gene expression by RT-qPCR in Panc02 cells; type: cell-based, mouse; settings: API 40 μM, 24 h, vs DMSO vehicle
Method: MiR-155 is known to be overexpressed in different cancers, including PC^21, 23. The inventors first assessed whether apigenin could modulate the expression of miR-155 in PC cells. Murine PC cell lines Panc02 and UN-KC-6141 as well as the human PC cell line MiaPaCa-2 were treated with API (40 μM) or DMSO vehicle for 24 h and the expression of miR-155 was examined using RT-qPCR assay. […] Since API is known to inhibit the growth of cancer cells, including PC cells^39-43, 47-50, the same PC cell lines were treated with API (40 μM) or DMSO (vehicle) for 24 h and examined cell viability using MTT assay. […] Moreover, Panc02 and UN-KC-6141 cells were then treated with API at a dose dependent concentration (10, 20, 30, 40, 50 μM) and detected apoptosis using flow cytometry (Annexin V and PI).
miR-155 is implicated in the development of pancreatic tumors from pancreatic intraepithelial neoplasia (PanIN) lesions, and is overexpressed in PC^23. The inventors examined whether the depletion of miR-155 modulated PC viability. Murine and human PC cell lines were transfected with miR-155 inhibitor (i.e., MMU-MIR-155-5P/HSA-MIR-155-5P) and scrambled miRNA at a concentration of 100 nM for 24 h and cell viability determined using an MTT assay. The expression of miR-155 was examined using an RT-qPCR assay as well. […]

[1] = system: heterotopic (H) mouse model of PC (HPC); settings: earlier report (ref 55); cited from earlier work
MiaPaCa-2 cells = experiment: MTT cell viability assay, MiaPaCa-2; type: cell-based, human; settings: API 40 μM, 24 h, vs DMSO vehicle
Method: The methyl thiazol tetrazolium (MTT) assay was performed as described previously^58. Briefly, MiaPaCa-2, Panc02 and UN-KC-6141 cells were seeded in 96-well plates at a density of 3000 cells/well and allowed to attach overnight. PC cells were then treated with API (40 μM) or DMSO (1%) as vehicle control for 24 h at 37° C. in 5% CO2 incubator. After 24 h, media was replaced with 20 μL of MTT (1 mg/mL) (Sigma-Aldrich) and incubated for 3 h at 37° C. in 5% CO2. MTT was replaced with DMSO, and absorbance was read at 570 nm.
MiaPaCa-2, Panc02 and UN-KC-6141 cells (2×10^5) were grown in 2 mL of growth medium in a 6-well tissue culture plate for 18-24 h until 60-80% confluency. The following solutions were prepared: Solution A) For each transfection, diluted 1 μL of miRNA-155 inhibitors (1 μM) (Table 2) or scrambled negative control miRNA (1 μM) (Qiagen, Germantown, MD, USA) into 50 μL Opti-MEM Transfection Medium (Invitrogen, Waltham, MA, USA). Solution B) For each transfection, diluted 3 μL of Hi-Perfect Transfection Reagent into 50 μL Opti-MEM Transfection Medium. Solution A was added directly to Solution B, mixed gently and the mixture incubated for 10-15 min at room temperature. […]

Which results are given for O=c1cc(-c2ccc(O)cc2)oc2cc(O)cc(O)c12 [API, 40,5,7-Trihydroxyflavone, 5,7-Dihydroxy-2-(4-hydroxyphenyl)-4-benzopyrone]?
miR-155 gene expression (miR-155): significantly suppressed; survival [1]: increased; tumor growth [1]: reduced; cell viability (MTT) (MiaPaCa-2 cells): significantly inhibited
